Experimental data: patent publication US4800199A, “3-[2-thiazoloamino]-8-oxo-7-substituted-5-thia-1-a zabicyclo-[4.2.0]oct-2-ene-2-carboxylic acid and salts thereof and diphenylmethyl esters thereof” (American Cyanamid Company, priority 1986, dated 1989)
Values after ≈ are worked out from the molar mass of the structure shown.

Tests used:
Assay in all cases: In vitro antibacterial activity, Mueller-Hinton agar dilution
Assay type in all cases: cell-based
[1] = system: Pseudonmonas aeruginosa CMC 83-19; details: read-out: Minimal Inhibitory Concentration
Text: (§1) The results of this test on representative compounds of this invention appear in Table I.

[2] = system: Staphylococcus aureus SSC 82-20; details: SSC8220, read-out: Minimal Inhibitory Concentration
Text: as §1

[3] = system: Enterobacter cloacae CMC 84-4; details: CMC844, read-out: Minimal Inhibitory Concentration
Text: as §1

[4] = system: Staphylococcus epidermidis CMC 83-133; details: CMC83133, read-out: Minimal Inhibitory Concentration
Text: as §1

[5] = system: Staphylococcus aureus SSC 82-24; details: SSC8224, read-out: Minimal Inhibitory Concentration
Text: as §1

Acinetobacter CMC 83-89 = details: CMC8389, read-out: Minimal Inhibitory Concentration
Text: as §1

[6] = system: Bacillus subtilis ATCC 6633; details: ATCC6633, read-out: Minimal Inhibitory Concentration
Text: as §1

[7] = system: Citrobacter freundii IO 83-13; details: IO8313, read-out: Minimal Inhibitory Concentration
Text: as §1

[8] = system: Morganella morganii IO 83-18; details: IO8318, read-out: Minimal Inhibitory Concentration
Text: as §1

[9] = system: Escherichia coli CMC 84-11; details: CMC8411, read-out: Minimal Inhibitory Concentration
Text: as §1

Enterococcus CMC 83-53 = details: CMC8353, read-out: Minimal Inhibitory Concentration
Text: as §1

[10] = system: Providencia stuartii CMC 83-82; details: CMC8382, read-out: Minimal Inhibitory Concentration
Text: as §1

[11] = system: Pseudomonas aeruginosa 12-4-4; details: 1244, read-out: Minimal Inhibitory Concentration
Text: as §1

[12] = system: Staphylococcus epidermidis ATCC 12228; details: ATCC12228, read-out: Minimal Inhibitory Concentration
Text: as §1

[13] = system: Proteus rettgheri IO 83-21; details: read-out: Minimal Inhibitory Concentration
Text: as §1

Escherichia coli 311 = details: read-out: Minimal Inhibitory Concentration
Text: as §1

[14] = system: Klebsiella oxytoca IO 83-1; details: IO831, read-out: Minimal Inhibitory Concentration
Text: as §1

[15] = system: Serratia marcescens CMC 83-27; details: CMC8327, read-out: Minimal Inhibitory Concentration
Text: as §1

[16] = system: Streptococcus faecalis ATCC 29212; details: Enterococcus faecalis, ATCC29212, read-out: Minimal Inhibitory Concentration
Text: as §1

[17] = system: Staphylococcus aureus SSC 82-31; details: SSC8231, read-out: Minimal Inhibitory Concentration
Text: as §1

[18] = system: Citrobacter diversis K83-24; details: K8324, read-out: Minimal Inhibitory Concentration
Text: as §1

[19] = system: Staphylococcus aureus ATCC 25923; details: ATCC25923, read-out: Minimal Inhibitory Concentration
Text: as §1

Acinetobacter IO 83-49 = details: IO8349, read-out: Minimal Inhibitory Concentration
Text: as §1

[20] = system: Micrococcus lutea PC 1001; details: PC1001, read-out: Minimal Inhibitory Concentration
Text: as §1

[21] = system: Staphylococcus aureus SSC 82-26; details: SSC8226, read-out: Minimal Inhibitory Concentration
Text: as §1

Klebsiella pneumoniae AD = details: read-out: Minimal Inhibitory Concentration
Text: as §1

[22] = system: Staphylococcus aureus SSC 82-57; details: SSC8257, read-out: Minimal Inhibitory Concentration
Text: as §1

[23] = system: Pseudomonas aeruginosa ATCC 27853; details: ATCC27853, read-out: Minimal Inhibitory Concentration
Text: as §1

Serratia marcescens F-35 = details: F35, read-out: Minimal Inhibitory Concentration
Text: as §1

[24] = system: Enterobacter aerogenes IO 83-44; details: Klebsiella aerogenes, IO8344, read-out: Minimal Inhibitory Concentration
Text: as §1

[25] = system: Escherichia coli ATCC 25922; details: ATCC25922, read-out: Minimal Inhibitory Concentration
Text: as §1

[26] = system: Klebsiella pneumoniae CMC 84-5; details: CMC845, read-out: Minimal Inhibitory Concentration
Text: as §1

CC(=O)OCC1=C(C(=O)O)N2C(=O)[C@@H](Nc3nc(C)cs3)[C@H]2SC1 [Example 12, (6R-trans)-3-[(Acetyloxy)methyl]-7-[(4-methyl-2-thiazolyl)amino]-8-oxo-5-thia-1-azabicyclo[4.2.0]oct-2-ene-2-carboxylic acid]
MIC [1]: > 128 µg/mL
MIC [2]: 4 µg/mL (≈ 10.8 µM)
MIC [3]: > 128 µg/mL
MIC [4]: 2 µg/mL (≈ 5.41 µM)
MIC [5]: 64 µg/mL (≈ 173 µM)
MIC (Acinetobacter CMC 83-89): > 128 µg/mL
MIC [6]: 1 µg/mL (≈ 2.71 µM)
MIC [7]: > 128 µg/mL
MIC [8]: > 128 µg/mL
MIC [9]: > 128 µg/mL
MIC (Enterococcus CMC 83-53): 128 µg/mL (≈ 346 µM)
MIC [10]: > 128 µg/mL
MIC [11]: > 128 µg/mL
MIC [12]: 2 µg/mL (≈ 5.41 µM)
MIC [13]: > 128 µg/mL
MIC (Escherichia coli 311): 64 µg/mL (≈ 173 µM)
MIC [14]: > 128 µg/mL
MIC [15]: > 128 µg/mL
MIC [16]: 128 µg/mL (≈ 346 µM)
MIC [17]: 4 µg/mL (≈ 10.8 µM)
MIC [18]: > 128 µg/mL
MIC [19]: 4 µg/mL (≈ 10.8 µM)
MIC (Acinetobacter IO 83-49): > 128 µg/mL
MIC [20]: 4 µg/mL (≈ 10.8 µM)
MIC [21]: 4 µg/mL (≈ 10.8 µM)
MIC (Klebsiella pneumoniae AD): 64 µg/mL (≈ 173 µM)
MIC [22]: 128 µg/mL (≈ 346 µM)
MIC [23]: > 128 µg/mL
MIC (Serratia marcescens F-35): > 128 µg/mL
MIC [24]: > 128 µg/mL
MIC [25]: > 128 µg/mL
MIC [26]: 128 µg/mL (≈ 346 µM)

CC(=O)OCC1=C(C(=O)O)N2C(=O)[C@@H](Nc3nc(C(=O)NCc4ccccc4)cs3)[C@H]2SC1 [Example 11, (6R-trans)-3-[(Acetyloxy)methyl]-8-oxo-7-[[4-[[(phenylmethyl)amino]carbonyl]-2-thiazolyl]amino]-5-thia-1-azabicyclo[4.2.0]oct-2-ene-2-carboxylic acid]
MIC [1]: > 128 µg/mL
MIC [2]: 8 µg/mL (≈ 16.4 µM)
MIC [3]: > 128 µg/mL
MIC [4]: 2 µg/mL (≈ 4.09 µM)
MIC [5]: > 128 µg/mL
MIC (Acinetobacter CMC 83-89): > 128 µg/mL
MIC [6]: 8 µg/mL (≈ 16.4 µM)
MIC [7]: > 128 µg/mL
MIC [8]: > 128 µg/mL
MIC [9]: > 128 µg/mL
MIC (Enterococcus CMC 83-53): > 128 µg/mL
MIC [10]: > 128 µg/mL
MIC [11]: > 128 µg/mL
MIC [12]: 2 µg/mL (≈ 4.09 µM)
MIC [13]: > 128 µg/mL
MIC (Escherichia coli 311): > 128 µg/mL
MIC [14]: > 128 µg/mL
MIC [15]: > 128 µg/mL
MIC [16]: > 128 µg/mL
MIC [17]: 4 µg/mL (≈ 8.19 µM)
MIC [18]: > 128 µg/mL
MIC [19]: 4 µg/mL (≈ 8.19 µM)
MIC (Acinetobacter IO 83-49): > 128 µg/mL
MIC [20]: 8 µg/mL (≈ 16.4 µM)
MIC [21]: 4 µg/mL (≈ 8.19 µM)
MIC (Klebsiella pneumoniae AD): > 128 µg/mL
MIC [22]: 128 µg/mL (≈ 262 µM)
MIC [23]: > 128 µg/mL
MIC (Serratia marcescens F-35): > 128 µg/mL
MIC [24]: > 128 µg/mL
MIC [25]: > 128 µg/mL
MIC [26]: > 128 µg/mL

CC(=O)OCC1=C(C(=O)O)N2C(=O)[C@@H](Nc3nc(C(=O)OCC(Cl)(Cl)Cl)cs3)[C@H]2SC1 [Example 9, (6R-trans)-3-[(Acetyloxy)methyl]-8-oxo-7-[[4-[(2,2,2-trichloroethoxy)carbonyl]-2-thiazolyl]amino]-5-thia-1-azabicyclo[4.2.0]oct-2-ene-2-carboxylic acid]
MIC [1]: > 128 µg/mL
MIC [2]: 0.25 µg/mL (≈ 0.471 µM)
MIC [3]: > 128 µg/mL
MIC [4]: ≤ 0.06 µg/mL
MIC [5]: > 128 µg/mL
MIC (Acinetobacter CMC 83-89): > 128 µg/mL
MIC [6]: 0.5 µg/mL (≈ 0.942 µM)
MIC [7]: > 128 µg/mL
MIC [8]: > 128 µg/mL
MIC [9]: > 128 µg/mL
MIC (Enterococcus CMC 83-53): 64 µg/mL (≈ 121 µM)
MIC [10]: > 128 µg/mL
MIC [11]: > 128 µg/mL
MIC [12]: ≤ 0.06 µg/mL
MIC [13]: 64 µg/mL (≈ 121 µM)
MIC (Escherichia coli 311): > 128 µg/mL
MIC [14]: > 128 µg/mL
MIC [15]: > 128 µg/mL
MIC [16]: 16 µg/mL (≈ 30.1 µM)
MIC [17]: ≤ 0.06 µg/mL
MIC [18]: > 128 µg/mL
MIC [19]: 0.12 µg/mL (≈ 0.226 µM)
MIC (Acinetobacter IO 83-49): > 128 µg/mL
MIC [20]: 1 µg/mL (≈ 1.88 µM)
MIC [21]: 0.12 µg/mL (≈ 0.226 µM)
MIC (Klebsiella pneumoniae AD): > 128 µg/mL
MIC [22]: 128 µg/mL (≈ 241 µM)
MIC [23]: > 128 µg/mL
MIC (Serratia marcescens F-35): > 128 µg/mL
MIC [24]: > 128 µg/mL
MIC [25]: > 128 µg/mL
MIC [26]: > 128 µg/mL

CC(=O)OCC1=C(C(=O)O)N2C(=O)[C@@H](Nc3nc(C(=O)O)cs3)[C@H]2SC1 [Example 7, (6R-trans)-3-[(Acetyloxy)methyl]-7-[(4-carboxy-2-thiazolyl)amino]-8-oxo-5-thia-1-azabicyclo[4.2.0]oct-2-ene-2-carboxylic acid]
MIC [1]: > 128 µg/mL
MIC [2]: 16 µg/mL (≈ 40.1 µM)
MIC [3]: > 128 µg/mL
MIC [4]: 2 µg/mL (≈ 5.01 µM)
MIC [5]: > 128 µg/mL
MIC (Acinetobacter CMC 83-89): > 128 µg/mL
MIC [6]: 8 µg/mL (≈ 20 µM)
MIC [7]: > 128 µg/mL
MIC [8]: > 128 µg/mL
MIC [9]: > 128 µg/mL
MIC (Enterococcus CMC 83-53): > 128 µg/mL
MIC [10]: > 128 µg/mL
MIC [11]: > 128 µg/mL
MIC [12]: 4 µg/mL (≈ 10 µM)
MIC [13]: 128 µg/mL (≈ 320 µM)
MIC (Escherichia coli 311): > 128 µg/mL
MIC [14]: > 128 µg/mL
MIC [15]: > 128 µg/mL
MIC [16]: > 128 µg/mL
MIC [17]: 8 µg/mL (≈ 20 µM)
MIC [18]: > 128 µg/mL
MIC [19]: 8 µg/mL (≈ 20 µM)
MIC (Acinetobacter IO 83-49): > 128 µg/mL
MIC [20]: 16 µg/mL (≈ 40.1 µM)
MIC [21]: 8 µg/mL (≈ 20 µM)
MIC (Klebsiella pneumoniae AD): > 128 µg/mL
MIC [22]: 128 µg/mL (≈ 320 µM)
MIC [23]: > 128 µg/mL
MIC (Serratia marcescens F-35): > 128 µg/mL
MIC [24]: > 128 µg/mL
MIC [25]: > 128 µg/mL
MIC [26]: > 128 µg/mL
